This note sets out measurements from US9115143B2, “Substituted indole derivatives as gamma secretase modulators” (Janssen Pharmaceuticals, Inc., priority 2011, dated 2015).

In one experiment the test system is Aβ38. In words: In vivo efficacy B-2b: brain soluble Aβ38, MSD electrochemiluminescence multiplex. The settings on record: mouse brain soluble fraction, dose 30 mg/kg oral dosing, 4 h after dose; untreated control set at 100; read-out: Aβ38 (% vs Ctrl)_Mean. The source says:
To determine whether acute administration of an Aβ38 increasing agents would increase Aβ38 levels in vivo, non-transgenic rodents, e.g. mice or rats were used. Animals treated with the Aβ38 increasing agents were examined and compared to those untreated or treated with vehicle and brain levels of soluble Aβ42, Aβ40, Aβ38, and Aβ37 were quantitated by MSD electrochemiluminescence detection technology. Treatment periods varied from hours (h) to days and were adjusted based on the results of the Aβ38 increase once a time course of onset of effect could be established.
A typical protocol for measuring Aβ38 increase in vivo is shown but it is only one of many variations that could be used to optimize the levels of detectable Aβ. For example, Aβ38 increasing agents were formulated in 20% of Captisol® (a sulfobutyl ether of β-cyclodextrin) in water or 20% hydroxypropyl β cyclodextrin. The Aβ38 increasing agents were administered as a single oral dose or by any acceptable route of administration to overnight fasted animals. After 4 h, the animals were sacrificed and Aβ38 levels were analysed.
(§1) Blood was collected by decapitation and exsanguinations in EDTA-treated collection tubes. Blood was centrifuged at 1900 g for 10 minutes (min) at 4° C. and the plasma recovered and flash frozen for later analysis. The brain was removed from the cranium and hindbrain. The cerebellum was removed and the left and right hemisphere were separated. The left hemisphere was stored at −18° C. for quantitative analysis of test compound levels. The right hemisphere was rinsed with phosphate-buffered saline (PBS) buffer and immediately frozen on dry ice and stored at −80° C. until homogenization for biochemical assays.
(§2) Mouse brains from non-transgenic animals were resuspended in 8 volumes of 0.4% DEA (diethylamine)/50 mM NaCl containing protease inhibitors (Roche-11873580001 or 04693159001) per gram of tissue, e.g. for 0.158 g brain, add 1.264 ml of 0.4% DEA. All samples were homogenized in the FastPrep-24 system (MP Biomedicals) using lysing matrix D (MPBio #6913-100) at 6 m/s for 20 seconds. Homogenates were centrifuged at 20800×g for 5 min and supernatants collected. Supernatants were centrifuged at 221.300×g for 50 min. The resulting high speed supernatants were then transferred to fresh eppendorf tubes. Nine parts of supernatant were neutralized with 1 part 0.5 M Tris-HCl pH 6.8 and used to quantify Aβ.
(§3) To quantify the amount of Aβ42, Aβ40, Aβ38, and Aβ37 in the soluble fraction of the brain homogenates, simultaneous specific detection of Aβ42, Aβ40, Aβ38, and Aβ37 was performed using MSD's electro-chemiluminescence multiplex detection technology. In this assay purified monoclonal antibodies specific for Abeta37 (JRD/Aβ37/3), Abeta38 (J&JPRD/Aβ38/5), Abeta40 (JRF/cAβ40/28), and Abeta42 (JRF/cAβ42/26) were coated on MSD 4-plex plates. Briefly, the standards (a dilution of synthetic Aβ42, Aβ40, Aβ38, and Aβ37) were prepared in 1.5 ml Eppendorf tube in Ultraculture, with final concentrations ranging from 10000 to 0.3 pg/m. The samples and standards were co-incubated with Sulfo-tag labelled JRF/rAβ/2 antibody to the N-terminus of Aβ as detector antibody. 50 μl of conjugate/sample or conjugate/standards mixtures were then added to the antibody-coated plate. The plate was allowed to incubate overnight at 4° C. in order to allow formation of the antibody-amyloid complex. Following this incubation and subsequent wash steps the assay was finished by adding read buffer according to the manufacturer's instructions (Meso Scale Discovery, Gaitherburg, Md.).
(§4) The SULFO-TAG emits light upon electrochemical stimulation initiated at the electrode. MSD Sector instrument SI6000 was used for signal read-out.
In this model a Aβ38 increase compared to untreated animals would be advantageous, in particular a Aβ38 increase with at least 10%, more in particular a Aβ38 increase with at least 20%. […]

Another experiment has as its system Aβ40. The experiment is described as follows: In vivo efficacy B-1b/B-2b: brain soluble Aβ40, MSD electrochemiluminescence multiplex. The note with it: mouse brain soluble fraction, dose 30 mg/kg oral dosing, 4 h after dose; untreated control set at 100; read-out: Aβ40 (% vs Ctrl)_Mean.
Excerpt: (§5) To determine whether acute administration of an Aβ42 lowering agent would reduce Aβ42 levels in vivo, non-transgenic rodents, e.g. mice or rats were used. Animals treated with the Aβ42 lowering agent were examined and compared to those untreated or treated with vehicle and brain levels of soluble Aβ42, Aβ40, Aβ38, and Aβ37 were quantitated by Meso Scale Discovery's (MSD) electrochemiluminescence detection technology. Treatment periods varied from hours (h) to days and were adjusted based on the results of the Aβ42 lowering once a time course of onset of effect could be established.
(§6) A typical protocol for measuring Aβ42 lowering in vivo is shown but it is only one of many variations that could be used to optimize the levels of detectable Aβ. For example, Aβ42 lowering compounds were formulated in 20% of Captisol® (a sulfobutyl ether of β-cyclodextrin) in water or 20% hydroxypropyl β cyclodextrin. The Aβ42 lowering agents were administered as a single oral dose or by any acceptable route of administration to overnight fasted animals. After 4 h, the animals were sacrificed and Aβ42 levels were analysed.
as §1, §2, §3, §4
The results are shown in Table 5 (dose 30 mg/kg oral dosing) (value for untreated animals as control (Ctrl) was set at 100): […]

A further experiment deals with Aβ42. The experiment is described as follows: In vivo efficacy B-1b: brain soluble Aβ42, MSD electrochemiluminescence multiplex. The settings on record: mouse brain soluble fraction, dose 30 mg/kg oral dosing, 4 h after dose; untreated control set at 100; read-out: Aβ42 (% vs Ctrl)_Mean.
Excerpt: as §5, §6, §1, §2, §3, §4
In this model a Aβ42 lowering compared to untreated animals would be advantageous, in particular a Aβ42 lowering with at least 10%, more in particular a Aβ42 lowering with at least 20%. […]

Each structure is given as a SMILES string.

With `Cc1cn(-c2ccc3[nH]c(-c4nc5n(n4)CCCC5c4ccc(F)cc4C)nc3c2)cn1` (stereo not drawn) [Compound 176, 8-(4-fluoro-2-methylphenyl)-5,6,7,8-tetrahydro-2-[5-(4-methyl-1H-imidazol-1-yl)-1H-benzimidazol-2-yl]-[1,2,4]triazolo[1,5-a]pyridine], the response vs control in vivo at 30 mg/kg is 126% with Aβ38, 111% in the experiment on Aβ40 and 103% in the experiment on Aβ42.
In the case of `COc1c(C#N)ccc2[nH]c(-c3nc4n(n3)CCOC4c3c(F)cccc3Cl)cc12` (single isomer, unassigned) [Compound 117, 2-[8-(2-chloro-6-fluorophenyl)-5,6-dihydro-8H-[1,2,4]triazolo[5,1-c][1,4]oxazin-2-yl]-4-methoxy-1H-indole-5-carbonitrile], the response vs control in vivo at 30 mg/kg came to 147% in the experiment with Aβ38, 112% in the experiment with Aβ40 and 79% in the experiment with Aβ42.
Take `COc1c(C#N)ccc2[nH]c(-c3nc4n(n3)CCOC4c3ccccc3C(F)(F)F)cc12` (stereo not drawn) [Compound 55, 2-[5,6-dihydro-8-[2-(trifluoromethyl)phenyl]-8H-[1,2,4]triazolo[5,1-c][1,4]oxazin-2-yl]-4-methoxy-1H-indole-5-carbonitrile]: the response vs control in vivo at 30 mg/kg in the experiment with Aβ38 turned out to be 148%; in the experiment with Aβ40 it was 94%; with Aβ42, 68%.
Regarding `COc1c(C#N)ccc2[nH]c(-c3cn4c(n3)C(c3ccc(F)cc3C)OCC4)cc12` (stereo not drawn) [Compound 47, 2-[8-(4-fluoro-2-methylphenyl)-5,6-dihydro-8H-imidazo[2,1-c][1,4]oxazin-2-yl]-4-methoxy-1H-indole-5-carbonitrile], the response vs control in vivo at 30 mg/kg in the experiment with Aβ38 amounted to 222%; with Aβ40, 56%; in the experiment on Aβ42 it was 55%.
